Reference: patent US9089499B2, “Para-coumaric acid or para-hydroxycinnamic acid derivatives and their use in cosmetic or dermatological compositions” (BASF Beauty Care Solutions France S.A.S., priority 2005, dated 2015)
Like-named read-outs stand apart in the source and are kept apart here.

How the values were obtained:
fungal tyrosinase = test: In vitro test of inhibition of isolated fungal tyrosinase (L-dopa, dopachrome OD 490 nm); assay type: biochemical; conditions: 490 nm
Source text: Tyrosinase catalyses the formation of L-dopaquinone and then of dopachrome from L-dopa. Now, dopachrome is a coloured compound that may be quantified by visible spectrophotometry at 490 nm. The use of an active agent capable of modifying the enzymatic activity will be reflected by a variation in the optical density at 490 nm. The to ratio of the rates of formation of dopachrome makes it possible to determine precisely the activations or inhibitions obtained with the various test molecules.
The sample to be tested is incubated in the presence of fungal tyrosinase (Sigma), for 5 minutes with stirring. L-Dopa (Sigma), a tyrosinase substrate, is incubated for 10 minutes in the absence of light, in the presence or absence of the test molecules. The calculation of the percentage of inhibition is performed by relating the test OD to the OD of the negative control without molecule.
In the context of this in vitro test, the p-coumaric acid derivatives were tested at final concentrations of 10^−4M and 10^−5M.

Human tyrosinase [1] = target: T1, Human tyrosinase (Homo sapiens, UniProt P14679); test: In vitro test of inhibition of human tyrosinase from melanocyte extracts (L-dopa/MBTH, OD 490 nm); assay type: biochemical; conditions: melanocyte extract
T1 construct: endogenous in cells; host or cells: normal human melanocytes (abdominal surgery; several donors of fair, brown and black phototypes)
T1 sequence (P14679 19-529): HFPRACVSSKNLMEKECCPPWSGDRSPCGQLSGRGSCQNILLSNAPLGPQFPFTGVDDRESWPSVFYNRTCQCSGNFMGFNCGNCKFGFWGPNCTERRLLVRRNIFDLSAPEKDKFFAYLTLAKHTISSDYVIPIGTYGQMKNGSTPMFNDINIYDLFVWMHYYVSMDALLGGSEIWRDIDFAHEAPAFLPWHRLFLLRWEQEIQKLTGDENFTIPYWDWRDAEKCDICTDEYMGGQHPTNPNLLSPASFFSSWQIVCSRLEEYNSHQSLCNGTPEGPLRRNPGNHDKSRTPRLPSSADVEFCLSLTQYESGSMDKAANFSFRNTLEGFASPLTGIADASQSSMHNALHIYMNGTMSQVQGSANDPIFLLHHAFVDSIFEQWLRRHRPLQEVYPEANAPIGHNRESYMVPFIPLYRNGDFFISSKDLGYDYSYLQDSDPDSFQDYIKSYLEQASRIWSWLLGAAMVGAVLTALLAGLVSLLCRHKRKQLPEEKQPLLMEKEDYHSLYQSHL
Procedure: Human tyrosinase, obtained from melanocyte extracts obtained from healthy donors, catalyses the formation of L-dopaquinone from L-dopa. Now, the L-dopaquinone may be quantified by visible spectrophotometry at 490 nm by means of a chromogen: 3-methyl-2-benzothiazolinone hydrazone (MBTH).
The melanocyte extract is obtained after lysis of cell membranes of the normal human melanocytes, performed via a thermal shock. The supernatant is recovered and then incubated with MBTH (Sigma) and L-dopa (Sigma). […]

Human tyrosinase [2] = target: T1, Human tyrosinase; test: Inhibition of human tyrosinase after 24 h application to normal human melanocytes in monolayer; assay type: cell-based; conditions: for inhibition at 1000 µM: 10^−3 M
Procedure: Normal human melanocytes (obtained from abdominal surgery) are seeded in 24-well plates at a rate of 80 000 cells per well. They are cultured to confluence and the active agents are applied for 24 hours to the culture media. After 24 hours, the media are removed and the melanocytes are detached via mechanical action. An extraction is performed via a thermal shock and the supernatants are then recovered and incubated with MBTH (Sigma) and L-dopa (Sigma). The OD at 490 nm is measured after 30 minutes, and the tyrosinase inhibition is calculated by relating the OD at 490 nm to the protein content (measured in each culture well) of the test relative to the ratio: OD 490 nm/protein concentration of the negative control (untreated control).
The compounds derived from the examples mentioned above were tested on melanocytes derived from various donors but of fair phototype, according to the protocol described in Example 29. The donors tested are as follows: • donor S (donor tested in Example 12): • donor 1: • donor 2: • donor 3
The compound derived from Example 1 is tested on cultures of melanocytes obtained from 2 donors of brown phototype and from one donor of black phototype. The protocol applied is that described in Example 29. […]

normal human melanocytes = test: Cytotoxicity on normal human melanocytes, PNPP assay; assay type: cell-based; conditions: 24 hours, relative to untreated wells
Procedure: The cytotoxicity of the active agents is studied on normal human melanocytes in 24-well plates, via assay with PNPP (P-nitrophenyl phosphate), this substance being converted into p-nitrophenol via the intracellular acid phosphatases of viable cells. The absorbance of p-nitrophenol at 405 nm is directly proportional to the number of viable cells.
The active agents are tested at 2 different concentrations (10^−4 M and 10^−5 M) and added to the culture medium and incubated at 37° C. for 24 hours. The assay with PNPP is performed on the cell lawn and the results are expressed as a percentage of viability relative to the negative control (untreated wells).

[3] = Antiradical activity, acellular DPPH model; conditions: DPPH 30 minutes, absorbance 520 nm
Procedure: The antiradical activity of the derivatives derived from the syntheses described above was evaluated in an in vitro acellular model using DPPH.
1,1-Diphenyl 2-picryihydrazyl, on account of its paramagnetic structure, can accept an electron or a hydrogen radical to become a stable diamagnetic molecule. This free radical, which is purple coloured in ethanol, has a strong absorption band at 520 nm.
The addition of a compound that provides electrons results in a decolorization of the 1,1-diphenyl 2-picrylhydrazyl that is proportional to the number of electrons taken up by the radical, which may be monitored by measuring the absorbance at 520 nm.
DPPH is incubated for 30 minutes in the presence of the derivatives described above, tested at a concentration of 10^−5M, or alone for the control. At the end of the incubation, the antiradical activity of the above derivatives is evaluated by measuring the absorbance of the solution at 520 nm.
The antiradical activity of each test product is calculated according to the formula, as a percentage: 100−((OD520 in the presence of the test compound/OD520 in the absence of compound)×100)

With `O=C(/C=C/c1ccc(O)c(O)c1)NCCc1ccc(O)cc1` [Example 9, N-trans-caffeoyltyramine] the “Inhibition of fungal tyrosinase, percentage of inhibition, Mean 10^−4M” value (fungal tyrosinase; 10^−4M) was 27.42%, the “Inhibition of fungal tyrosinase, percentage of inhibition, Mean 10^−5M” value (fungal tyrosinase; 10^−5M) was 13.06% and the inhibition at 100 µM (Human tyrosinase [1]; 10^−4M, read-out: Inhibition of human tyrosinase, percentage of inhibition, Mean 10^−4M) was 22.1%. For the same compound, the inhibition at 10 µM (Human tyrosinase [1]; 10^−5M, read-out: Inhibition of human tyrosinase, percentage of inhibition, Mean 10^−5M) was 11.9%, the inhibition at 100 µM (Human tyrosinase [2]; 10^−4M, 24 hours, read-out: Inhibition of human tyrosinase after application to normal human melanocytes, percentage of inhibition, Mean 10^−4M) was 100% and the inhibition at 10 µM (Human tyrosinase [2]; 10^−5M, 24 hours, read-out: Inhibition of human tyrosinase after application to normal human melanocytes, percentage of inhibition, Mean 10^−5M) was 24.6%. For the same compound, the inhibition at 1000 µM (Human tyrosinase [2]; B103, Donor B, brown phototype, read-out: Inhibition of tyrosinase, Mean Donor B, 10^−3 M) was 94.5%, the inhibition at 100 µM (Human tyrosinase [2]; B104, Donor B, brown phototype, 10^−4 M, read-out: Inhibition of tyrosinase, Mean Donor B, 10^−4 M) was 44.4% and the inhibition at 100 µM (Human tyrosinase [2]; Donor 1, fair phototype, 10^−4 M, read-out: Inhibition of tyrosinase, Mean 10^−4 M, Donor 1) was 65.3%. The inhibition at 10 µM (Human tyrosinase [2]; Donor 1, fair phototype, 10^−5 M, read-out: Inhibition of tyrosinase, Mean 10^−5 M, Donor 1) was 0%, the inhibition at 100 µM (Human tyrosinase [2]; Donor 2, fair phototype, 10^−4 M, read-out: Inhibition of tyrosinase, Mean 10^−4 M, Donor 2) was 61.5% and the inhibition at 10 µM (Human tyrosinase [2]; Donor 2, fair phototype, 10^−5 M, read-out: Inhibition of tyrosinase, Mean 10^−5 M, Donor 2) was 0%. It also gave an inhibition at 100 µM (Human tyrosinase [2]; Donor 3, fair phototype, 10^−4 M, read-out: Inhibition of tyrosinase, Mean 10^−4 M, Donor 3) of 70.7%, an inhibition at 10 µM (Human tyrosinase [2]; Donor 3, fair phototype, 10^−5 M, read-out: Inhibition of tyrosinase, Mean 10^−5 M, Donor 3) of 22.2% and an inhibition at 1000 µM (Human tyrosinase [2]; Donor A, brown phototype, read-out: Inhibition of tyrosinase, Mean Donor A, 10^−3 M) of 98.9%. The inhibition at 100 µM (Human tyrosinase [2]; Donor A, brown phototype, 10^−4 M, read-out: Inhibition of tyrosinase, Mean Donor A, 10^−4 M) was 44.6%, the inhibition at 10 µM (Human tyrosinase [2]; Donor A, brown phototype, 10^−5 M, read-out: Inhibition of tyrosinase, Mean Donor A, 10^−5 M) was 21.3% and the inhibition at 10 µM (Human tyrosinase [2]; Donor B, brown phototype, 10^−5 M, read-out: Inhibition of tyrosinase, Mean Donor B, 10^−5 M) was 18.9%. The inhibition at 100 µM (Human tyrosinase [2]; Donor S, fair phototype, 10^−4 M, read-out: Inhibition of tyrosinase, Mean 10^−4 M, Donor S) was 100%, the inhibition at 10 µM (Human tyrosinase [2]; Donor S, fair phototype, 10^−5 M, read-out: Inhibition of tyrosinase, Mean 10^−5 M, Donor S) was 24.6% and the inhibition at 100 µM (Human tyrosinase [2]; donor of black phototype, 10^−4 M, read-out: Inhibition, Mean Negroid skin, 10^−4 M) was 49.3%. The inhibition at 10 µM (Human tyrosinase [2]; donor of black phototype, 10^−5 M, read-out: Inhibition, Mean Negroid skin, 10^−5 M) was 16%, the “Percentages of viability, Mean 10^−4 M” value (normal human melanocytes; 10^−4 M) was 77.9% and the “Percentages of viability, Mean 10^−5 M” value (normal human melanocytes; 10^−5 M) was 94.96%. For the same compound, the “Antiradical activity, Mean 10^−5 M” value [3] was 41.17%.
